{"source": "patent US20250281474A1", "about": "“PHARMACEUTICAL COMPOSITION FOR TREATING COGNITIVE DECLINE OR FOR TREATING OVERWEIGHTNESS OR OBESITY” (University of the Ryukyus, priority 2021, published 2025)", "key": {"NMDA receptor": {"system": "NMDA receptor", "assay": "Ca2+-dependent inactivation of the NMDA receptor, Ca2+ imaging of brain slices", "format": "cell-based, mouse", "settings": "brain slices of mice fed HFD 2 weeks; 3 μM, 60 min; n=3"}, "[1]": {"settings": "Ca2+ indicator; cited from earlier work"}, "CP-AMPAR": {"system": "CP-AMPAR", "assay": "Ca2+ imaging of hippocampal brain slices, AMPA+CTZ application, ob/ob mice", "format": "cell-based, mouse"}, "AMPAR (CP-AMPAR)": {"system": "AMPAR (CP-AMPAR)", "assay": "Ca2+ imaging of hippocampal brain slices, AMPA+CTZ application (CP-AMPA reaction), HFD-fed mice", "format": "cell-based", "description": "First, the intracellular calcium concentration ([Ca^2+]i) was directly measured in an acute brain slice of the hippocampus having a perihippocampal region using a mouse obesity model associated with HFD feeding (composition of diet (7) shown in Table 1) for 12 weeks after weaning to track calcium signaling (FIG. 1A: supplementary data moving image 1) in the hippocampus. HFD-fed mice received […] containing 100 μM CTZ (cyclothiazide; […]) applied to EC (entorhinal cortex), CA1 (cornu ammonis 1), CA2, CA3, and DG (dentate gyrus). The F525 normalized before and after application was compared."}, "NMDAR [2]": {"system": "NMDAR", "assay": "Ca2+ imaging of hippocampal brain slices, NMDA+glycine application (NMDA reaction), HFD-fed mice", "format": "cell-based, mouse", "settings": "HFD mice orally administered PER; leptin 100 nM"}, "NMDAR [3]": {"system": "NMDAR", "assay": "Ca2+ imaging of hippocampal brain slices, NMDA+glycine application, ob/ob mice", "settings": "ob/ob mice orally administered PER; leptin 100 nM"}}, "note": "Read-outs that look alike come from different tables or passages of the source."}
{"molecule": "CC(=O)OCOC(=O)CN(CC(=O)OCOC(C)=O)c1ccccc1OCCOc1ccccc1N(CC(=O)OCOC(C)=O)CC(=O)OCOC(C)=O", "note": "[BAPTA-AM]", "values": [{"measurement": "inactivation of the NMDA receptor (reactivity to NMDA 50 μM and glycine 10 μM)", "setting": "NMDA receptor", "value": "released the inactivation of the NMDA receptor"}]}
{"molecule": "CC(=O)OCOC(=O)CN(CC(=O)OCOC(C)=O)c1ccc(C)cc1OCCOc1cc(-c2c3cc(Cl)c(=O)cc-3oc3cc(OCOC(C)=O)c(Cl)cc23)ccc1N(CC(=O)OCOC(C)=O)CC(=O)OCOC(C)=O", "note": "[Fluo-3 AM]", "values": [{"measurement": "Kd", "setting": "[1]", "value": 400, "unit": "nM"}]}
{"molecule": "Cc1cn2c(n1)Cc1ccc(Cl)cc1C(c1ccc(N)cc1)=N2", "note": "[GYKI 47261]", "values": [{"measurement": "inhibitory effect on CP-AMPAR in EC, CA1, CA2, CA3, DG", "setting": "CP-AMPAR; ob/ob mice slices, 100 μM, p<0.05 (FIG. 10-1A)", "value": "significant inhibitory effect"}]}
{"molecule": "NCCCNCCCCNCCCNC(=O)Cc1cccc2ccccc12", "note": "[NASPM, N-[3-[[4-[(3-aminopropyl)amino]butyl]amino]propyl]-1-naphthaleneacetamide]", "values": [{"measurement": "increase in [Ca2+]i via pathological AMPAR", "setting": "AMPAR (CP-AMPAR)", "value": "disappeared"}, {"measurement": "inhibitory effect on CP-AMPAR in EC, CA1, CA2, CA3, DG", "setting": "CP-AMPAR", "value": "significant inhibitory effect"}]}
{"molecule": "leptin: hormone that regulates energy expenditure", "values": [{"measurement": "function of NMDAR in EC, CA1, CA2, CA3, DG", "setting": "NMDAR [2]", "value": "significantly enhanced"}, {"measurement": "function of NMDAR in EC, CA1, CA2, CA3, DG", "setting": "NMDAR [3]", "value": "significantly enhanced"}]}
